The values that follow come from patent publication US10617656B2, “Methods of increasing the cytotoxicity of chemotherapeutic agents with multisubstrate inhibitors of histone, protein-Lys, polyamine acetylation, and polyamine metabolism” (Vanderbilt University, priority 2010, dated 2020).

SMILES strings stand for the structures.

This assay addresses T1, p300 catalytic domain (Homo sapiens, UniProt Q09472).
T1 construct: the catalytic domain of p300(965-1810); purchased Active Motif, Carlsbad, Calif
T1 sequence (Q09472 965-1810): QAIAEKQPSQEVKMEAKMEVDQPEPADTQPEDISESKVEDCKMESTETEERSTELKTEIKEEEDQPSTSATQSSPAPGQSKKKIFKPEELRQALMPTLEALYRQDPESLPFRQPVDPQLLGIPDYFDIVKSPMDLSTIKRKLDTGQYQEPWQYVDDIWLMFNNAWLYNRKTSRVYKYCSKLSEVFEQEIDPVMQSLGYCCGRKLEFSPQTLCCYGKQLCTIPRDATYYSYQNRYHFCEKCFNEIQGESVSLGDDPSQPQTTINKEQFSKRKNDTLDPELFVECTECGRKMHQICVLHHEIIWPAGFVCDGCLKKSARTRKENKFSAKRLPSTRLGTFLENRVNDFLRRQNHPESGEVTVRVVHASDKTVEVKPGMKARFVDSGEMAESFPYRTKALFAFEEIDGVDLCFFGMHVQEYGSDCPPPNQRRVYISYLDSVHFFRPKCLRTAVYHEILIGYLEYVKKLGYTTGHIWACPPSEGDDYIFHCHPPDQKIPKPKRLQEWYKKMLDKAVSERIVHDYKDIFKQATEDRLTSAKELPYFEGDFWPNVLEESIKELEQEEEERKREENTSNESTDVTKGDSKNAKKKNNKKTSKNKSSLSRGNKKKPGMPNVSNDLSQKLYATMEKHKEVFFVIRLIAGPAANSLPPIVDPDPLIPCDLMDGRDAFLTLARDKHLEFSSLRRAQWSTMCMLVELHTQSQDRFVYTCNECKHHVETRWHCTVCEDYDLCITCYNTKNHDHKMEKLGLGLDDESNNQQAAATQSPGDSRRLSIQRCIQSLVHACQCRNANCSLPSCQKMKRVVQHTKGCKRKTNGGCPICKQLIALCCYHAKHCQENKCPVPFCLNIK
The assay can be described thus: 96-well fluorescent HAT assay kit (Active Motif), H3 peptide (5-23). It counts as biochemical. As to the method:
(A) Structures of compound 1a (spermidine CoA), and the acetylated side chain of a lysine residue of a polypeptide chain. (B) Inhibition of p300 acetylating activity as a function of 1a concentration. The catalytic domain of recombinant p300 (1284-1660) was assayed under steady state conditions using an N-terminal acetylated histone H4 peptide substrate, Ac-H4(1-19)-NH2. Closed circles represent experimental data points; plain line represents theoretical profile based on data reduction software (Prism) using a one site inhibition model. (C) In vitro assay of p300 activity using a 96-well assay kit (ActivMotif) and an H3 peptide substrate (5-23), according to manufacturer's instructions. Bars represent average of duplicates. […]
Reactions were set up in duplicate following the protocol supplied by the kit. […] Activity is measured in fluorescence units. […]
Assays were performed using the fluorescent HAT assay kit (Active Motif, Carlsbad, Calif.), an H3 peptide as substrate (residues 5-23), the p300 catalytic domain as enzyme, and 50 μM inhibitor in duplicate, according to the manufacturer's instructions. […] The reaction product, CoASH, was detected spectrophotometrically by reaction with 5,5′-dithiobis-2-nitrobenzoic acid (DTNB). Assays were carried out at 30° C. for 30 minutes, conditions which had previously been determined in kinetic assays to sufficient to achieve steady state.

With `CC(C)(COP(=O)(O)OP(=O)(O)OC[C@H]1O[C@@H](n2cnc3c(N)ncnc32)[C@H](O)[C@@H]1OP(=O)(O)O)[C@@H](O)C(=O)NCCC(=O)NCCSCC(=O)NCCCNCCCCN` [1a, spermidine[N1]-CoA], the inhibition at 50 µM (50 μM inhibitor, Active Motif 96-well assay, FIG. 9, read-out: inhibition of incorporation of acetyl groups into the H4 peptide substrate relative to untreated wells) turned out to be 88%.
Regarding `CC(=O)NCCSCC(=O)NCCCNCCCCNCCCN` [spm-3], the “inhibition of p300 HAT activity” value (FIG. 24, p300(965-1810), H3 peptide) is reported as “HAT inhibitors”.
